The values below are quoted from earlier work in paper PMC8198792, “Prediction of Anticancer Peptides with High Efficacy and Low Toxicity by Hybrid Model Based on 3D Structure of Peptides” (International Journal of Molecular Sciences, 2021).

Like-named read-outs stand apart in the source and are kept apart here.

Data set [1] has as its system erythrocytes. The following applies: cited from earlier work. From the text:
Supplement ijms-22-05630-s001.zip/Hemloytic Peptides(seguence).xlsx, sheet "HD1" | column: Activity || Supplement ijms-22-05630-s001.zip/Hemloytic Peptides(seguence).xlsx, sheet "HD2" | column: Activity || Supplement ijms-22-05630-s001.zip/Hemloytic Peptides(seguence).xlsx, sheet "HD3" | column: Activity

In data set [2] the test system is cancer cell lines. Also noted: method as in 6 sources, ref CancerPPD [45] and SATPdb ||| ref CancerPPD/SATPdb ||| ref CancerPPD, SATPdb, Swissprot (PDB) ||| ref CancerPPD/SATPdb/Swissprot(PDB) ||| ref CancerPPD / SATPdb ||| ... The following applies: cited from earlier work. From the text:
Supplement ijms-22-05630-s001.zip/ACPs(seguence).xlsx, sheet "D1" | column: Activity || Supplement ijms-22-05630-s001.zip/ACPs(seguence).xlsx, sheet "D2" | column: Activity || Supplement ijms-22-05630-s001.zip/ACPs(seguence).xlsx, sheet "D3" | column: Activity || (+ 2 further places)

Setting [3] is: hemolytic peptides dataset HD3, 1 = hemolytic (positive set), 0 = non-hemolytic (negative set), labels taken from databases, ref Hemolytik/SATPdb.
Setting [4] is: natural hemolytic peptide dataset HD1, label collected from databases, ref Hemolytik [49], SATPdb [34].
The mark [5] stands for this setting: Hemolytic peptides dataset HD2, label 1 = hemolytic, 0 = non-hemolytic, ref Hemolytik/SATPdb.
[6] abbreviates: ACPs dataset D3 (sheet "D3"), label 1 = ACP, 0 = non-ACP, ref CancerPPD/SATPdb.
[7] abbreviates: ACPs dataset D4 (sheet "D4"), label 1 = ACP, 0 = non-ACP, ref CancerPPD / SATPdb.
[8] abbreviates: ACPs dataset D5, sheet "D5", label 1 = ACP, 0 = non-ACP, ref CancerPPD [45] and SATPdb.

As to “CGESCVWIPCTITALAGCKCKSKVCYNSIP [satpdb10149, hemolytic peptide, dataset HD1]”, the Activity is recorded as 1 in data set [1] (setting [3]); 0 in data set [2] (ACPs dataset D1, label 1 = ACP, 0 = non-ACP (non-anticancer AMPs from SATPdb), ref CancerPPD/SATPdb); 0 in data set [2] (ACPs dataset D4 (sheet "D4"), label 1 = ACP (CancerPPD ID), 0 = non-ACP (non-anticancer AMP, SATPdb ID), ref CancerPPD [45] and SATPdb). In data set [1] (setting [4]), the “Activity (dataset HD1, hemolytic 1 / non-hemolytic 0)” value is given as 1.
Take GFLSSLKKSLPKSXAHSK [satpdb13158]: the Activity is listed as 1 in data set [1] (setting [5]); 1 in data set [1] (setting [3]); 0 in data set [2] (setting [6]); 0 in data set [2] (setting [7]); 0 in data set [2] (setting [8]).
Consider FRPKVTITIQGSARF [satpdb11995], for which the Activity in data set [1], in data set [2] (setting [6]), in data set [2] (setting [7]) and in data set [2] (setting [8]) was 0 in each case.
Turning to GFLSILKKVLAKVMAHMK [satpdb13478], the Activity in data set [1] (setting [5]) is recorded as 1; in data set [1] (setting [3]), 1; in data set [2] (setting [6]), 0; in data set [2] (setting [7]), 0; in data set [2] (setting [8]), 0.
Take GSKKPVPIIYANRRTGKAQRM [satpdb20538]: in data set [1], the Activity was 0 and the “Activity (dataset HD1, hemolytic 1 / non-hemolytic 0)” value is on record as 0.
For the substance KWKKLPKKLLKLL [satpdb21914], the Activity in data set [1] is on record as 0.
For KAVAAKKSPKKAKKPAT [satpdb19355], in data set [1], the Activity was 0 and the “Activity (dataset HD1, hemolytic 1 / non-hemolytic 0)” value is listed as 0.
For the substance GWGSIFKHGRHAAKHIGHAAVNHYL [satpdb11681], the Activity in data set [1] was 1.
On to GFLSILKKVLKVMAHMK [satpdb11385], for which the Activity in data set [1] (setting [5]) and in data set [1] (setting [3]) was 1 in each case.
VIPFVASVAAEMMHHVYCAASKRC [satpdb16460]: in data set [1], the Activity was 1 and the “Activity (dataset HD1, hemolytic 1 / non-hemolytic 0)” value was 1.
In the case of QTRRLTYKpRTVTYTRGR [satpdb13569], the Activity in data set [1] is reported as 1.
Consider “GFMDTAKNVAKNVAVTLLDNLKCKITKAC [satpdb14159]”, for which, in data set [1], the Activity is 1 and the “Activity (dataset HD1, hemolytic 1 / non-hemolytic 0)” value is reported as 1.
With TGRAKRRMQYNRR [satpdb25092], in data set [1], the Activity was 0 and the “Activity (dataset HD1, hemolytic 1 / non-hemolytic 0)” value is on record as 0.
With KKKKKKAAFLAWALFAA [compound 1149], in data set [1], the Activity is on record as 1.
Regarding “GFWKKVGSAAWGGVKAAAKGAAVGGLNALAKHIQ [satpdb28387]”, in data set [1], the Activity is listed as 0 and the “Activity (dataset HD1, hemolytic 1 / non-hemolytic 0)” value is 0.
For the substance FLPLLLAGLPKLLCLFFKKC [satpdb14955], in data set [1], the Activity is 1 and the “Activity (dataset HD1, hemolytic 1 / non-hemolytic 0)” value is on record as 1.
As to “RGLRRLGRKIAHGVKKYGPTVKRIKRKA [satpdb15155]”, in data set [1], the Activity is 0.
On to WLLKW [satpdb27330], for which the Activity in data set [1] (setting [5]) and in data set [1] (setting [3]) was 0 throughout.
For “KWKSFLKTFKSLKKTVLHTLLKAISS [satpdb11586]”, the Activity in data set [1] is listed as 1.
Take KLLKLLLKLLLKLLK [compound 3689]: in data set [1], the Activity is given as 1.
Take KLLLKLLKLLLKLLLKLLK [compound 3687]: in data set [1], the Activity was 1.
Take “GILDTLKQFAKGVGKDLVKGAAQGVLSTVSCKLAKTC [satpdb16042]”: in data set [1], the Activity is given as 0 and the “Activity (dataset HD1, hemolytic 1 / non-hemolytic 0)” value was 0.
On to VLSAADKGNVKAAWGKVGGHAAE [satpdb26597], for which, in data set [1], the Activity is 0 and the “Activity (dataset HD1, hemolytic 1 / non-hemolytic 0)” value is listed as 0.
As for KWKLFKKIPHLAKKF [satpdb28955], the Activity in data set [1] is recorded as 0.
Regarding LRQSQFVGSR [satpdb22092], the Activity in data set [1] was 0.
For the substance GIIKKIIKKI [satpdb26556], the Activity in data set [1] is 0.
“kWkSFLkTFkSLKkTVLHTLLkAISS [satpdb10734]”: the Activity in data set [1] (setting [5]) and in data set [1] (setting [3]) was 1 in each case.
In the case of “KWKSFLKTLKSPVKTVFYTALKPISS [satpdb14675]”, the Activity in data set [1] (setting [3]) is recorded as 1. For the same substance, the “Activity (dataset HD1, hemolytic 1 / non-hemolytic 0)” value in data set [1] (setting [4]) was 1.
For DSHEKRHHGYKRKFHEKHHSHRGY [satpdb14665], in data set [1], the Activity is 0 and the “Activity (dataset HD1, hemolytic 1 / non-hemolytic 0)” value is recorded as 0.
With ALWKTLLKKVLKA [satpdb11740], in data set [1], the Activity is recorded as 1.
As for PKLLKFLSKWIG [satpdb11566], in data set [1], the Activity is listed as 1 and the “Activity (dataset HD1, hemolytic 1 / non-hemolytic 0)” value is given as 1.
GIIKKI [satpdb22209]: the Activity in data set [1] (setting [5]) and in data set [1] (setting [3]) was 0 each time.
On to “IKIPPIVKDTLKKVAKGVLSTIAGALST [satpdb27001]”, for which, in data set [1], the Activity is listed as 0 and the “Activity (dataset HD1, hemolytic 1 / non-hemolytic 0)” value is 0.
Regarding KWLRRVWRWWR [satpdb13727], the Activity in data set [1] is reported as 1.
In the case of KWLKKWL [satpdb27612], the Activity in data set [1] is given as 0.
For the substance VRRFPAAAPFLRR [satpdb24534], in data set [1], the Activity is listed as 0 and the “Activity (dataset HD1, hemolytic 1 / non-hemolytic 0)” value is on record as 0.
In the case of IPHAVKAISDLI [satpdb15419], the Activity in data set [1] is on record as 0.
Consider “GMWSKIKNAGKAAKAAAKAAGKAALGAVSEAM [satpdb14564]”, for which, in data set [1], the Activity is 0 and the “Activity (dataset HD1, hemolytic 1 / non-hemolytic 0)” value is recorded as 0.
As for KKLKKLKKKWKKLKKKLK [satpdb24596], in data set [1], the Activity is listed as 0 and the “Activity (dataset HD1, hemolytic 1 / non-hemolytic 0)” value is 0.
In the case of FLSLIPHAINAVSAIAKHF [satpdb17651], the Activity in data set [1] is 0.
Consider KLLKKPLKLKL [satpdb17171], for which, in data set [1], the Activity is given as 0.
Consider GWGSFFKKAAHVGKHVGKAALT [satpdb28107], for which the Activity in data set [1] was 0.
Consider RAGLQFPVGRLLRRLLR [satpdb15223], for which, in data set [1], the Activity is on record as 0 and the “Activity (dataset HD1, hemolytic 1 / non-hemolytic 0)” value is reported as 0.
Take WLKKW [satpdb27168]: the Activity in data set [1] (setting [5]) and in data set [1] (setting [3]) was 0 each time.
For the substance LLKKLLKWLKK [satpdb11747], in data set [1], the Activity was 1.
With LKLFKKILKFL [satpdb12214], in data set [1], the Activity was 1.
As to FIFPKKNIINSLFGR [satpdb24412], the Activity in data set [1] (setting [3]) is recorded as 0. Moreover, the “Activity (dataset HD1, hemolytic 1 / non-hemolytic 0)” value in data set [1] (setting [4]) is given as 0.
Take “KWKSFLKTFKSlKKTVLHTlLKAISS [satpdb12638]”: the Activity in data set [1] (setting [5]) and in data set [1] (setting [3]) was 1 each time.
For FLPLVLGALSGILPKILGK [satpdb12081], in data set [1], the Activity was 1 and the “Activity (dataset HD1, hemolytic 1 / non-hemolytic 0)” value is recorded as 1.
Consider “GFKLKGKAKISCLPNGQWSNFPPKCIRECAMVSS [satpdb25464]”, for which, in data set [1], the Activity is reported as 0 and the “Activity (dataset HD1, hemolytic 1 / non-hemolytic 0)” value is recorded as 0.
Turning to “RWKIFKKIEKVGRNVRDGIIKAGPAVAVVGQAATVVKG [satpdb26767]”, the Activity in data set [1] (setting [3]) is reported as 0. In addition, the “Activity (dataset HD1, hemolytic 1 / non-hemolytic 0)” value in data set [1] (setting [4]) was 0.
Take CKLLKTFLSKWIC [compound 3456]: the Activity in data set [1] is reported as 1.
For the substance RFGRFLRKIRRFRPK [satpdb23150], in data set [1], the Activity was 0 and the “Activity (dataset HD1, hemolytic 1 / non-hemolytic 0)” value is reported as 0.
In the case of KKKKKKAAFALWLAFLA [compound 1154], the Activity in data set [1] is given as 1.
LKDVEEAQQKIINIIRRL [satpdb22186]: the Activity in data set [1] is listed as 0.
For the substance KPLLKKLLKKL [satpdb28330], the Activity in data set [1] was 0.
For GWKKWLRKGAKHLGQAAIK [satpdb12620], the Activity in data set [1] is on record as 1.
Turning to KWKLFKKIPKFLHSAKKF [satpdb25981], the Activity in data set [1] was 0.
Consider GKLNLFLSRLEILKLFVGAL [satpdb18533], for which, in data set [1], the Activity is 0 and the “Activity (dataset HD1, hemolytic 1 / non-hemolytic 0)” value was 0.
In the case of GWKSVFRKAKKVGKTVGGLALDHYL [satpdb12845], the Activity in data set [1] is 1.
In the case of “QRSVSNAATRVSRTGRSRWRDVSRNFMRR [satpdb24123]”, in data set [1], the Activity is 0 and the “Activity (dataset HD1, hemolytic 1 / non-hemolytic 0)” value is 0.
In the case of “MAFKKLEKVGRNIRDGIIKAGPAVAVIGQATSIARPTGK [satpdb16695]”, in data set [1], the Activity is 0 and the “Activity (dataset HD1, hemolytic 1 / non-hemolytic 0)” value is given as 0.
GWRKWIKKATHVGKHIGKAALDAYI [satpdb10530]: the Activity in data set [1] is listed as 1.
As to QADFQKVVAGVANALAHRYH [satpdb25830], in data set [1], the Activity was 0 and the “Activity (dataset HD1, hemolytic 1 / non-hemolytic 0)” value is listed as 0.
GRRRRSVQWCA [satpdb24172]: in data set [1], the Activity is on record as 0 and the “Activity (dataset HD1, hemolytic 1 / non-hemolytic 0)” value is on record as 0.
In the case of KWKLFKKIPLAKKF [satpdb27289], in data set [1], the Activity is listed as 0.
As to FDWDSVLKGVEGFVRGYF [satpdb25715], in data set [1], the Activity is recorded as 0 and the “Activity (dataset HD1, hemolytic 1 / non-hemolytic 0)” value is reported as 0.
